Results taken from paper PMC10010643 (Cancer Chemotherapy and Pharmacology, 2023).
Where two headings read alike, the source gives them in different places.

Experiments:
[1] = Plasma PK, Part B multiple oral BID doses in healthy participants; type: in vivo, human; details: for concentration at 12 h / AUC / Cmax / Tmax / half-life / Vd/F: human, plasma, oral; for concentration at 12 h: read-out: Trough (12 h post-dose) concentration (Cmin), geometric mean (range); for AUC: read-out: AUC0-τ, geometric mean (CV%); for Cmax: read-out: Cmax, geometric mean (CV%); for half-life: read-out: t½, arithmetic mean (SD) (converted); for Vd/F: read-out: Vz/F, geometric mean (CV%)
Procedure: Following review of safety, tolerability, and PK data from cohorts A1–A6, participants received twice-daily doses (BID) under fasted conditions on days 1–9 and a final single dose in the morning of day 10. […] There was one treatment period and all participants stayed at the CRU from day − 1 until the morning of day 11 (24 h after the final dose on day 10). All were to return for a follow-up visit 5–7 days after their final dose.
Blood samples (4 mL) were collected in K3 EDTA tubes by venipuncture or cannulation. In Part A, samples were taken pre-dose and at 0.5, 1, 1.5, 2, 3, 4, 6, 8, 12, 16, 24, 36 and 48 h post-dose. In part B, samples were taken pre-dose on days 1 (pre-AM dose) and 10 (pre-final dose) and at 0.5, 1, 1.5, 2, 3, 4, 6, 8 and 12 h post-AM dose for day 1 and post-final dose for day 10. Samples were also taken on days 4–9 pre-AM dose, on day 11 at 24 and 36 h post-final dose, and on day 12 at 48 h post-final dose. Blood samples were centrifuged at 1500 g for 10 min at […] and split into two plasma aliquots.
Urine was collected by spot collection in Part A only before dosing and between 0–6, 6–12, 12–24, and 24–48 h post-dose. Blood and urine aliquots were stored in polypropylene tubes at − 70 °C until bioanalysis.
In Part B, the plasma PK parameters included AUC over a dosing interval (AUC0–τ), AUC0–∞, Cmax, Tmax, t½, minimum observed plasma concentration (Cmin), observed accumulation ratio based on AUC0–τ (RAAUC0–τ) and observed accumulation ratio based on Cmax (RACmax). Further details can be found in the Supplementary materials.
Dose proportionality was analyzed for exposure parameters after fasted doses. The power model was used on AUC0–∞, AUC0–tlast, and Cmax on day 1 in Part A. Data were analyzed over two dose ranges: 50–400 mg (50 mg capsules) and 5–50 mg (5 mg capsules). An analysis of variance was used on AUC0–τ and Cmax on day 10 in Part B. The effect of food on AUC0–∞, AUC0–tlast, and Cmax at 50 mg in Part A was investigated using a mixed model which included treatment as a fixed effect and subject as a random effect.

[2] = system: human liver stellate cell line; set-up: method as in PMID 36154172; details: in vitro; cited from earlier work
[3] = 50 mg, 50 mg BID, fasted, Day 1
[4] = 50 mg, 50 mg BID, fasted, Day 10
[5] = 100 mg, 100 mg BID, fasted, Day 1
[6] = 100 mg, 100 mg BID, fasted, Day 10

## OC[C@H]1O[C@H](Sc2cncc(Br)c2)[C@H](O)[C@@H](n2cc(-c3cc(F)c(F)c(F)c3)nn2)[C@H]1O [GB1211]
[1]; 50 mg BID, fasted, Day 10
  CL/F, geometric mean (CV%): 9.75 (29.0) L/h
  Cmin, geometric mean (CV%): 249 (26.2) ng/mL
  Vd/F: 311 L
[1]; 100 mg BID, fasted, Day 10
  CL/F, geometric mean (CV%): 13.3 (21.1) L/h
  Cmin, geometric mean (CV%): 338 (27.5) ng/mL
  t½, arithmetic mean (SD): 13.1 (2.65) h
  Vd/F: 248 L
[1]; 50 and 100 mg BID, day 10
  Dose proportionality of AUC0–τ and Cmax: sub-proportional manner
[1]; by the morning of day 3
  Time to steady-state after the start of the BID multiple-dosing period: 48 h
[1]; 50 mg BID, day 10
  concentration at 12 h: 249 ng/mL
[1]; [3]
  AUC: 2220 ng·h/mL
  Cmax: 330 ng/mL
[1]; 50 mg, 50 mg BID, fasted, Day 1, read-out: Tmax, median (min–max)
  Tmax: 4 h
[1]; [4]
  AUC: 5130 ng·h/mL
  Cmax: 658 ng/mL
  half-life: ~21.4 h
[1]; 50 mg, 50 mg BID, fasted, Day 10, read-out: Tmax, median (min–max)
  Tmax: 2.5 h
[1]; 100 mg BID, day 10
  concentration at 12 h: 338 ng/mL
[1]; [5]
  AUC: 3560 ng·h/mL
  Cmax: 546 ng/mL
[1]; 100 mg, 100 mg BID, fasted, Day 1, read-out: Tmax, median (min–max)
  Tmax: 3 h
[1]; [6]
  AUC: 7530 ng·h/mL
  Cmax: 975 ng/mL
  half-life: ~13.1 h
[1]; 100 mg, 100 mg BID, fasted, Day 10, read-out: Tmax, median (min–max)
  Tmax: 3 h
[1]; multiple BID doses, days 1 and 10, read-out: Median Tmax, range
  Tmax: 2.5 to 4 h
[1]; multiple BID oral dosing
  Accumulation in plasma with multiple dosing: ~ twofold
  Time to steady-state: ≤ 3 days
[2]
  TGFβ-induced fibrosis gene expression: inhibiting TGFβ-induced fibrosis gene expression
